Measurements as given in article PMC11845477, “Exploring the principles behind antibiotics with limited resistance” (Nature Communications, 2025).

Experiments:
[1] = test system: A. baumannii ATCC 17978 (SEN) and A. baumannii ATCC BAA-1605 (MDR); assay: microbe, parasite or virus in culture; type: cell-based, Acinetobacter baumannii; details: for MIC: across three biological replicates
Method in brief: (§1)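 Inoculum was 5 × 10^5 cells/mL in cation-adjusted MHB2 (SCH79797 excepted) across 11–16-step dilution series in duplicate. Relative MIC divides evolved-strain MIC by ancestor MIC.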

[2] = test system: K. pneumoniae ATCC 10031 (SEN) and K. pneumoniae ATCC 700603 (MDR); assay: Adaptive laboratory evolution (ALE), relative MIC of evolved lines; type: cell-based, Klebsiella pneumoniae
Method in brief: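 Ten parallel populations per antibiotic–ancestor pair were evolved in MHB at 37 °C, starting near 50% growth-inhibiting drug. Every 72 h they were passaged into 0.5–2.5× increasing concentrations, keeping the highest-drug well with OD600 > 0.2.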

[3] = test system: P. aeruginosa ATCC BAA-3107 (SEN) and P. aeruginosa LESB58 (MDR); assay: microbe, parasite or virus in culture; type: cell-based, Pseudomonas aeruginosa; details: across three biological replicates
Method in brief: as §1

[4] = KP-SEN (Klebsiella pneumoniae ATCC 10031), evolved line 1
[5] = KP-SEN (Klebsiella pneumoniae ATCC 10031), evolved line 4
[6] = KP-SEN (Klebsiella pneumoniae ATCC 10031), evolved line 8
[7] = KP-SEN (Klebsiella pneumoniae ATCC 10031), evolved line 9
[8] = KP-SEN, Klebsiella pneumoniae ATCC 10031, evolved line 5

CC(C)c1ccc(Cn2ccc3c4c(N)nc(NC5CC5)nc4ccc32)cc1 [SCH79797]
MIC of ancestor ([1]; Acinetobacter baumannii ATCC 17978 (AB-SEN), ancestor strain, sheet fig 2a): 4 µg/mL
MIC ([1]; Acinetobacter baumannii ATCC 17978 (AB-SEN)): 4 µg/mL
MIC of ancestor ([1]; Acinetobacter baumannii ATCC BAA 1605 (AB-MDR), ancestor strain, sheet fig 2a): 4 µg/mL
MIC ([1]; Acinetobacter baumannii ATCC BAA-1605 (AB-MDR)): 4 µg/mL
MIC of ancestor ([1]; ancestor AB-MDR (Acinetobacter baumannii ATCC BAA 1605)): 4 µg/mL
MIC of ancestor ([1]; ancestor AB-SEN (Acinetobacter baumannii ATCC 17978)): 4 µg/mL
Relative MIC ([2]; ALE, Klebsiella pneumoniae ATCC 10031 (KP-SEN), evolved line 1): 16
Relative MIC ([2]; ALE, Klebsiella pneumoniae ATCC 10031 (KP-SEN), evolved line 2): 4
Relative MIC ([2]; ALE, Klebsiella pneumoniae ATCC 10031 (KP-SEN), evolved line 3): 2
Relative MIC ([2]; ALE, Klebsiella pneumoniae ATCC 10031 (KP-SEN), evolved line 4): 16
Relative MIC ([2]; ALE, Klebsiella pneumoniae ATCC 10031 (KP-SEN), evolved line 5): 32
Relative MIC ([2]; ALE, Klebsiella pneumoniae ATCC 10031 (KP-SEN), evolved line 6): 2
Relative MIC ([2]; ALE, Klebsiella pneumoniae ATCC 10031 (KP-SEN), evolved line 7): 4
Relative MIC ([2]; ALE, Klebsiella pneumoniae ATCC 10031 (KP-SEN), evolved line 8): 8
Relative MIC ([2]; ALE, Klebsiella pneumoniae ATCC 10031 (KP-SEN), evolved line 9): 8
Relative MIC ([2]; ALE, Klebsiella pneumoniae ATCC 10031 (KP-SEN), evolved line 10): 2
MIC of evolved line ([2]; KP-SEN (K. pneumoniae ATCC 10031), evolved line 1 of the given antibiotic): 64 µg/mL
Relative MIC ([2]; KP-SEN (K. pneumoniae ATCC 10031), evolved line 1 vs ancestor): 16
MIC of evolved line ([2]; KP-SEN (K. pneumoniae ATCC 10031), evolved line 2 of the given antibiotic): 16 µg/mL
Relative MIC ([2]; KP-SEN (K. pneumoniae ATCC 10031), evolved line 2 vs ancestor): 4
MIC of evolved line ([2]; KP-SEN (K. pneumoniae ATCC 10031), evolved line 3 of the given antibiotic): 8 µg/mL
Relative MIC ([2]; KP-SEN (K. pneumoniae ATCC 10031), evolved line 3 vs ancestor): 2
MIC of evolved line ([2]; KP-SEN (K. pneumoniae ATCC 10031), evolved line 4 of the given antibiotic): 64 µg/mL
Relative MIC ([2]; KP-SEN (K. pneumoniae ATCC 10031), evolved line 4 vs ancestor): 16
MIC of evolved line ([2]; KP-SEN (K. pneumoniae ATCC 10031), evolved line 5 of the given antibiotic): 128 µg/mL
Relative MIC ([2]; KP-SEN (K. pneumoniae ATCC 10031), evolved line 5 vs ancestor): 32
MIC of evolved line ([2]; KP-SEN (K. pneumoniae ATCC 10031), evolved line 6 of the given antibiotic): 8 µg/mL
Relative MIC ([2]; KP-SEN (K. pneumoniae ATCC 10031), evolved line 6 vs ancestor): 2
MIC of evolved line ([2]; KP-SEN (K. pneumoniae ATCC 10031), evolved line 7 of the given antibiotic): 16 µg/mL
Relative MIC ([2]; KP-SEN (K. pneumoniae ATCC 10031), evolved line 7 vs ancestor): 4
MIC of evolved line ([2]; KP-SEN (K. pneumoniae ATCC 10031), evolved line 8 of the given antibiotic): 32 µg/mL
Relative MIC ([2]; KP-SEN (K. pneumoniae ATCC 10031), evolved line 8 vs ancestor): 8
MIC of evolved line ([2]; KP-SEN (K. pneumoniae ATCC 10031), evolved line 9 of the given antibiotic): 32 µg/mL
Relative MIC ([2]; KP-SEN (K. pneumoniae ATCC 10031), evolved line 9 vs ancestor): 8
MIC of evolved line ([2]; KP-SEN (K. pneumoniae ATCC 10031), evolved line 10 of the given antibiotic): 8 µg/mL
Relative MIC ([2]; KP-SEN (K. pneumoniae ATCC 10031), evolved line 10 vs ancestor): 2
Relative MIC [2, 4]: 16
Relative MIC (log10) [2, 4]: 1.204 log10
Relative MIC ([2]; KP-SEN (Klebsiella pneumoniae ATCC 10031), evolved line 2): 4
Relative MIC ([2]; KP-SEN (Klebsiella pneumoniae ATCC 10031), evolved line 3): 2
Relative MIC [2, 5]: 16
Relative MIC (log10) [2, 5]: 1.204 log10
Relative MIC ([2]; KP-SEN (Klebsiella pneumoniae ATCC 10031), evolved line 6): 2
Relative MIC [2, 6]: 8
Relative MIC (log10) [2, 6]: 0.9031 log10
Relative MIC [2, 7]: 8
Relative MIC (log10) [2, 7]: 0.9031 log10
Relative MIC ([2]; KP-SEN (Klebsiella pneumoniae ATCC 10031), evolved line 10): 2
Relative MIC [2, 8]: 32
Relative MIC (log10) [2, 8]: 1.505 log10
Relative MIC ([2]; KP-SEN, Klebsiella pneumoniae ATCC 10031, evolved line 7): 4
Relative MIC ([2]; Klebsiella pneumoniae ATCC 10031 (KP-SEN), evolved line 1): 16
Relative MIC ([2]; Klebsiella pneumoniae ATCC 10031 (KP-SEN), evolved line 2): 4
Relative MIC ([2]; Klebsiella pneumoniae ATCC 10031 (KP-SEN), evolved line 3): 2
Relative MIC ([2]; Klebsiella pneumoniae ATCC 10031 (KP-SEN), evolved line 4): 16
Relative MIC ([2]; Klebsiella pneumoniae ATCC 10031 (KP-SEN), evolved line 5): 32
Relative MIC ([2]; Klebsiella pneumoniae ATCC 10031 (KP-SEN), evolved line 6): 2
Relative MIC ([2]; Klebsiella pneumoniae ATCC 10031 (KP-SEN), evolved line 7): 4
Relative MIC ([2]; Klebsiella pneumoniae ATCC 10031 (KP-SEN), evolved line 8): 8
Relative MIC ([2]; Klebsiella pneumoniae ATCC 10031 (KP-SEN), evolved line 9): 8
Relative MIC ([2]; Klebsiella pneumoniae ATCC 10031 (KP-SEN), evolved line 10): 2
MIC ([3]; Pseudomonas aeruginosa ATCC BAA-3107 (PA-SEN)): 32 µg/mL
MIC ([3]; Pseudomonas aeruginosa LESB 58 (PA-MDR)): >32 µg/mL
